Experiments:
Enterovirus A71 [1] = assay: Anti-viral activity against Enterovirus A71 Tainan/4643/1998 infected in human RD cells assessed as reduction in virus induced cytopathic effect incubated for 3 days by CPE assay; assay type: functional, organism-based; details: Enterovirus A, Tainan/4643/1998, RD, 72 h
[2] = Cytotoxicity against human RD cells incubated for 3 days by neutral red uptake method; assay type: cell-based, Rhabdomyosarcoma cell; details: time 3 day
[3] = Selectivity index, ratio of CC50 for african green monkey Vero cells to EC50 for Coxsackievirus B3 in green monkey Vero cells; assay type: toxicity, cell-based; details: read-out: Ratio CC50/EC50
[4] = Cytotoxicity against Enterovirus A71 Tainan/4643/1998 infected human RD cells incubated for 3 days by neutral red uptake method; assay type: functional; details: Rhabdomyosarcoma cell, 72 h, time 3 day
enterovirus D68 [5] = assay: Anti-viral activity against Enterovirus D68 US/IL/14-18956 infected in human RD cells assessed as reduction in virus induced cytopathic effect incubated for 3 days by CPE assay; assay type: functional, organism-based; details: Enterovirus D, US/IL/14-18956, RD, 72 h
enterovirus D68 [6] = assay: Anti-viral activity against Enterovirus D68 US/IL/14-18952 infected in human RD cells assessed as reduction in virus induced cytopathic effect incubated for 3 days by CPE assay; assay type: functional, organism-based; details: Enterovirus D, US/IL/14-18952, RD, 72 h
[7] = Cytotoxicity against Enterovirus D68 US/MO/14-18947 infected human RD cells incubated for 3 days by neutral red uptake method; assay type: functional; details: Rhabdomyosarcoma cell, 72 h, pooled result: one value given for 4 cell lines, strains, targets or settings, time 3 day
[8] = Cytotoxicity against Enterovirus D68 US/IL/14-18952 infected human RD cells incubated for 3 days by neutral red uptake method; assay type: functional; details: Rhabdomyosarcoma cell, 72 h, time 3 day
[9] = Cytotoxicity against Enterovirus A71 MP4 infected human RD cells incubated for 3 days by neutral red uptake method; assay type: functional; details: Rhabdomyosarcoma cell, 72 h, time 3 day
enterovirus D68 [10] = assay: Anti-viral activity against Enterovirus D68 US/MO/14-18947 infected in human RD cells assessed as inhibition of plaque formation incubated for 3 days by plaque assay based crystal violet staining analysis; assay type: functional, organism-based; details: Enterovirus D, US/MO/14-18947, RD, 72 h
Enterovirus = assay: Anti-viral activity against Enterovirus D68 US/MO/14-18947 infected in human SH-SY5Y cells assessed as inhibition of virus replication by immunofluorescence staining using anti-VPI antibody; assay type: functional, organism-based; details: D68 US/MO/14-18947, SH-SY5Y
[11] = Selectivity index, ratio of CC50 for human RD cells to EC50 for Enterovirus D68 US/KY/14-18953 in human RD cells; assay type: toxicity, cell-based; details: read-out: Ratio CC50/EC50
[12] = Selectivity index, ratio of CC50 for human RD cells to EC50 for Enterovirus A71 Tainan/4643/1998 in human RD cells; assay type: toxicity, cell-based; details: read-out: Ratio CC50/EC50
Coxsackievirus B3 = assay: Anti-viral activity against Coxsackievirus B3 infected in green monkey Vero cells assessed as reduction in virus induced cytopathic effect incubated for 3 days by CPE assay; assay type: functional, organism-based; details: Enterovirus B, 72 h
enterovirus D68 [13] = assay: Anti-viral activity against Enterovirus D68 US/MO/14-18947 infected in human RD cells assessed as reduction in virus induced cytopathic effect incubated for 3 days by CPE assay; assay type: functional, organism-based; details: Enterovirus D, US/MO/14-18947, RD, 72 h
enterovirus D68 [14] = assay: Anti-viral activity against Enterovirus D68 US/MO/14-18949 infected in human RD cells assessed as reduction in virus induced cytopathic effect incubated for 3 days by CPE assay; assay type: functional, organism-based; details: Enterovirus D, US/MO/14-18949, RD, 72 h
enterovirus D68 [15] = assay: Anti-viral activity against Enterovirus D68 US/KY/14-18953 infected in human RD cells assessed as reduction in virus induced cytopathic effect incubated for 3 days by CPE assay; assay type: functional, organism-based; details: Enterovirus D, US/KY/14-18953, RD, 72 h
Enterovirus A71 [16] = assay: Anti-viral activity against Enterovirus A71 MP4 infected in human RD cells assessed as reduction in virus induced cytopathic effect incubated for 3 days by CPE assay; assay type: functional, organism-based; details: Enterovirus A, 72 h
enterovirus D68 [17] = assay: Antiviral activity against Enterovirus D68 US/MO/14-18947 harboring 2C protein D183V/D323G drug resistant mutant by CPE assay followed by viral 2C gene sequencing; assay type: functional, organism-based; details: Enterovirus D
[18] = Selectivity index, ratio of CC50 for human RD cells to EC50 for Enterovirus A71 USA/CT/2016-19519 infected in human RD cells; assay type: toxicity, cell-based; details: read-out: Ratio CC50/EC50
[19] = Selectivity index, ratio of CC50 for human RD cells to EC50 for Enterovirus A71 MP4 in human RD cells; assay type: toxicity, cell-based; details: read-out: Ratio CC50/EC50

## CCCn1ncc2c(C(=O)NCCN(C)C)cc(C3CC3)nc21
Enterovirus A71 [1]
  EC50: 2 µM
[2]
  CC50 at 72 h: 57.7 µM

## CC(CN(C)C)NC(=O)c1cc(C2CC2)nc2c1cnn2C(C)C (centres undefined)
[2]
  CC50 at 72 h: 72.6 µM
[3]
  selectivity ratio: > 7500

## CC(C)n1ncc2c(C(=O)NCCN)cc(C3CC3)nc21
Enterovirus A71 [1]
  EC50: 0.4 µM
[4]
  CC50: 259 µM

## CC(C)n1ncc2c(C(=O)NCCN3CCCC3)cc(C3CC3)nc21
Enterovirus A71 [1]
  EC50: 0.2 µM
[2]
  CC50 at 72 h: 46.5 µM

## CC(C)c1cc(C(=O)NCCN(C)C)c2cnn(C(C)C)c2n1
[4]
  CC50: 161 µM
[3]
  selectivity ratio: > 7500
Enterovirus D68 [5]
  EC50: 0.07 µM
Enterovirus D68 [6]
  EC50: 0.03 µM
[7]
  CC50: 161 µM
[8]
  CC50: 161 µM
[9]
  CC50: 161 µM
Enterovirus D68 [10]
  EC50: 0.023 µM
Enterovirus
  EC50: 0.03 µM

## CNCCNC(=O)c1cc(C(C)C)nc2c1cnn2C(C)C
[11]
  selectivity ratio: > 250
[12]
  selectivity ratio: > 1000

## Cc1cc(C(=O)NCCN)c2cnn(C(C)C)c2n1
[11]
  selectivity ratio: > 63.8
[12]
  selectivity ratio: > 429
[3]
  selectivity ratio: > 78.9

## CNCCNC(=O)c1cc(C2CC2)nc2c1cnn2C(C)C
Enterovirus A71 [1]
  EC50: 0.2 µM
Coxsackievirus B3
  EC50: 0.2 µM
[2]
  CC50 at 72 h: 236 µM
[4]
  CC50: 236 µM
[3]
  selectivity ratio: > 500
Enterovirus D68 [13]
  EC50: 0.2 µM
Enterovirus D68 [14]
  EC50: 0.2 µM
Enterovirus D68 [5]
  EC50: 0.2 µM
Enterovirus D68 [6]
  EC50: 0.2 µM
[7]
  CC50: 236 µM
[9]
  CC50: 236 µM
Enterovirus D68 [10]
  EC50: 0.077 µM
Enterovirus
  EC50: 0.07 µM

## CN(C)CCNC(=O)c1cc(C2CC2)nc2c1cnn2C
[2]
  CC50 at 72 h: > 300 µM
[11]
  selectivity ratio: > 30.6

## CCN(CC)CCNC(=O)c1cc(C2CC2)nc2c1cnn2C(C)C
[4]
  CC50: 89.9 µM

## CC(C)n1ncc2c(C(=O)NCCCN(C)C)cc(C3CC3)nc21
[4]
  CC50: 74.1 µM
[3]
  selectivity ratio: > 500

## Cc1cc(C(=O)NCCN(C)C)c2cnn(C(C)C)c2n1
[4]
  CC50: 112 µM
[3]
  selectivity ratio: > 1500

## CCn1ncc2c(C(=O)NCCNC)cc(C)nc21
[2]
  CC50 at 72 h: > 300 µM
[11]
  selectivity ratio: > 5.1

## CNCCNC(=O)c1cc(C)nc2c1cnn2C(C)C
[11]
  selectivity ratio: > 130
[12]
  selectivity ratio: > 600
[3]
  selectivity ratio: > 214

## Cc1cc(C(=O)NC2CCN(C)C2)c2cnn(C(C)C)c2n1 (centres undefined)
[11]
  selectivity ratio: > 167
[12]
  selectivity ratio: > 600
[3]
  selectivity ratio: > 375

## CC(C)n1ncc2c(C(=O)NCCN)cc(C(C)(C)C)nc21
[2]
  CC50 at 72 h: 24.6 µM

## CC(C)c1cc(C(=O)NCCN)c2cnn(C(C)C)c2n1
Enterovirus D68 [15]
  EC50: 0.6 µM
[2]
  CC50 at 72 h: 170 µM

## CC(CN)NC(=O)c1cc(C2CC2)nc2c1cnn2C(C)C (centres undefined)
Enterovirus D68 [15]
  EC50: 0.3 µM
[4]
  CC50: 113 µM

## CC(C1CC1)n1ncc2c(C(=O)NCCN(C)C)cc(C3CC3)nc21 (centres undefined)
[4]
  CC50: 28.4 µM

## CCC(C)n1ncc2c(C(=O)NCCN(C)C)cc(C3CC3)nc21 (centres undefined)
[4]
  CC50: 40.7 µM

## CC(C)n1ncc2c(C(=O)NCCN(C)C)cc(C3CC3)nc21
[2]
  CC50 at 72 h: 200 µM
[4]
  CC50: 200 µM
Enterovirus D68 [13]
  EC50: 0.07 µM
Enterovirus D68 [14]
  EC50: 0.1 µM
Enterovirus D68 [6]
  EC50: 0.04 µM
[7]
  CC50: 200 µM
[8]
  CC50: 200 µM
Enterovirus A71 [16]
  EC50: 0.1 µM
Enterovirus D68 [10]
  EC50: 0.025 µM
Enterovirus D68 [17]
  EC50: 1.9 µM

## Cc1cc(C(=O)NCCN(C)C)c2c(C)nn(C(C)(C)C)c2n1
Coxsackievirus B3
  EC50: 2.1 µM
Enterovirus D68 [13]
  EC50: 0.4 µM
Enterovirus D68 [14]
  EC50: 0.7 µM
[7]
  CC50: 117 µM
[8]
  CC50: 117 µM
[9]
  CC50: 117 µM
[18]
  selectivity ratio: 89.7
[19]
  selectivity ratio: 58.3
Enterovirus D68 [10]
  EC50: 0.13 µM
Enterovirus
  EC50: 0.34 µM

## Cc1cc(C(=O)NC2CN(C)C2)c2cnn(C(C)C)c2n1
[11]
  selectivity ratio: > 26.5
[12]
  selectivity ratio: > 41.1
[3]
  selectivity ratio: > 78.9

## CNCCCNC(=O)c1cc(C2CC2)nc2c1cnn2C(C)C
[2]
  CC50 at 72 h: 183 µM

## CC(C)c1cc(C(=O)NCCO)c2cnn(C(C)C)c2n1
[2]
  CC50 at 72 h: > 100 µM
[11]
  selectivity ratio: > 10.2

## CCn1ncc2c(C(=O)NCCN(C)C)cc(C3CC3)nc21
[4]
  CC50: 263 µM
[3]
  selectivity ratio: > 167

## CCN(CC)CCCNC(=O)c1cc(C2CC2)nc2c1cnn2C(C)C
[4]
  CC50: 43.8 µM

## COCCNC(=O)c1cc(C2CC2)nc2c1cnn2C(C)C
[2]
  CC50 at 72 h: 178 µM

## Cc1nn(C(C)(C)C)c2nc(C3CC3)cc(C(=O)NCCN(C)C)c12
[2]
  CC50 at 72 h: 45.2 µM

## CC(C)n1ncc2c(C(=O)NCCN(C)C)cc(C(C)(C)C)nc21
[2]
  CC50 at 72 h: 31.4 µM

## CC(CN(C)C)NC(=O)c1cc(C(C)C)nc2c1cnn2C(C)C (centres undefined)
[11]
  selectivity ratio: > 100
[12]
  selectivity ratio: > 100

## CCn1ncc2c(C(=O)NCCN(C)C)cc(C)nc21
[2]
  CC50 at 72 h: > 300 µM
[11]
  selectivity ratio: > 16.4

## CC(CN)NC(=O)c1cc(C(C)C)nc2c1cnn2C(C)C (centres undefined)
[2]
  CC50 at 72 h: 118 µM

## CC(C)n1ncc2c(C(=O)Nc3ccccn3)cc(-c3cccs3)nc21
Enterovirus D68 [15]
  EC50: 0.2 µM
[2]
  CC50 at 72 h: > 50 µM
[11]
  selectivity ratio: > 250
Enterovirus D68 [13]
  EC50: 0.1 µM

## CNCCNC(=O)c1cc(C2CC2)nc2c1c(C)nn2C(C)(C)C
[4]
  CC50: 31.9 µM
